Test results taken from article PMC8765781, “A platform of assays for the discovery of anti-Zika small-molecules with activity in a 3D-bioprinted outer-blood-retina model” (PLoS ONE, 2022).
Like-named read-outs stand apart in the source and are kept apart here.

Experiments:
[1] = system: ZIKV-mCherry (Cambodian strain FSS13025); assay: microbe, parasite or virus in culture; format: cell-based, Zika virus; conditions: for AC50: Zika virus, Vero
[2] = system: DENV (Dengue virus type 2, strain New Guinea C)
[3] = system: mCherry-ZIKV in human neuronal progenitor cells; assay: microbe, parasite or virus in culture; format: cell-based, Zika virus
in vitro [4] = conditions: human
[5] = system: caspase-3 activity induced by ZIKV in Vero cells; assay: cells; format: cell-based; conditions: Zika virus, Vero, 48 h, read-out: Caspase 3 (ZIKV Antiviral Assays), IC50
[6] = system: ZIKV-RLuc (Cambodian strain FSS13025); assay: microbe, parasite or virus in culture; format: cell-based, Zika virus; conditions: for IC50 / AC50: Zika virus, Vero; for IC50: 48 h, read-out: Rluc-ZIKV (ZIKV Antiviral Assays), IC50
[7] = system: wild-type ZIKV (Ugandan MR766 strain) in Vero cells; assay: ZIKV cytopathic effect (CPE) inhibition qHTS assay, CellTiter-Glo readout; format: cell-based, Zika virus; conditions: for IC50: 48 h, read-out: ZIKV-infection (CPE, ZIKV Antiviral Assays), IC50
in vitro [8] = conditions: African green monkey; for CC50 at 48 h: Vero cells
in vitro [9] = conditions: human; remark: listed apart in the source
[10] = Zika virus, Vero, read-out: Log AC50 (M) (converted)
[11] = read-out: Log AC50 (M) (converted)

## CCC[S+](=O)([O-])Nc1ccc(F)c(C(=O)c2c[nH]c3ncc(-c4ccc(Cl)cc4)cc23)c1F [NCGC00250399-05]
[1]
  CC-v2 (curve class of the dose response curve): 5
  Efficacy (difference between neutral response and maximum compound response): 0
  Max Resp (difference between neutral response and response at highest compound concentration): -69.344
WNV (Kern515/WN02)
  SI value WHV (CC50/EC50): 2
  Selectivity Index WHV (CC50/EC50): 2
  WHV active Yes/No: No
YFV (YFV 17D)
  YFV active Yes/No: No
ZIKV
  SI value ZIKV (CC50/EC50): 14
  Selectivity Index ZIKV (CC50/EC50): 14
  ZIKV active Yes/No: Yes
[2]
  DENV active Yes/No: Yes
  SI value DENV (CC50/EC50): 4.3
  Selectivity Index DENV (CC50/EC50): 4
[3]
  CC-v2 (curve class): 4
  Efficacy: -22.524
  Max Resp: -6.687
[3]; Zika virus, Neuronal progenitor cell, read-out: NPC (ZIKV Antiviral Assays), IC50
  IC50: 35.5 µM
In vitro [4]
  CC50: > 30 µM
[5]
  IC50: 8.31 µM
[6]
  IC50: 9.28 µM
[7]
  Efficacy: -40.165
[7]; Zika virus, Vero
  AC50: 1.46e-06 M
  IC50: 1.46 µM
[7]; [10]
  AC50: 1.46e-06 M
In vitro [8]
  CC50: > 50 µM

## COc1cccc(-n2nc(C(=O)O)cc2-c2ccc(C3CCCCC3)c(Cl)c2)c1 [NCGC00379183-01]
[1]
  CC-v2 (curve class of the dose response curve): 5
  Efficacy (difference between neutral response and maximum compound response): -42.035
  Max Resp (difference between neutral response and response at highest compound concentration): -100.305
  AC50: 1.68e-05 M
[1]; [11]
  AC50: 1.68e-05 M
In vitro [9]
  CC50: 25.1 µM
[3]
  CC-v2 (curve class): -3
  Efficacy: -112.723
  Max Resp: -95.876
[3]; Zika virus, Neuronal progenitor cell
  AC50: 5.01e-05 M
[3]; Zika virus, Neuronal progenitor cell, read-out: Log AC50 (M) (converted)
  AC50: 5.01e-05 M
[5]
  IC50: 26.3 µM
[6]
  IC50: 18.5 µM
[7]
  CC-v2 (curve class classification of the dose response curve): -3
  Efficacy: -41.012
[7]; Zika virus, Vero
  AC50: 2.91e-05 M
  IC50: 29.1 µM
[7]; [10]
  AC50: 2.91e-05 M
In vitro [8]
  CC50 at 48 h: > 50 µM

## C=C(CO)[C@@]12O[C@@H]1[C@@]1(C)C(=CC2=O)CC[C@@H](O)[C@@H]1C [NCGC00380396-01]
[1]
  CC-v2 (curve class of the dose response curve): -1.2
  Efficacy (difference between neutral response and maximum compound response): -43.557
  Max Resp (difference between neutral response and response at highest compound concentration): -98.628
  AC50: 1.34e-06 M
[1]; [11]
  AC50: 1.34e-06 M
In vitro [9]
  CC50: > 30 µM
[5]
  IC50: 0.01 µM
[6]
  IC50: 4.14 µM
[7]
  CC-v2 (curve class classification of the dose response curve): -1.2
  Efficacy: -65.778
[7]; Zika virus, Vero
  AC50: 8.2e-06 M
  IC50: 8.2 µM
[7]; [10]
  AC50: 8.2e-06 M
In vitro [8]
  CC50: > 50 µM

## COc1cc2c(cc1OC)[C@@H]1[C@H](O)[C@@H](OC)C=C3CCN(C2)[C@H]31 [NCGC00384634-01]
[1]
  CC-v2 (curve class of the dose response curve): -1.2
  Efficacy (difference between neutral response and maximum compound response): -42.96
  Max Resp (difference between neutral response and response at highest compound concentration): -99.819
  AC50: 8.26e-07 M
[1]; [11]
  AC50: 8.26e-07 M
In vitro [9]
  CC50: > 30 µM
[5]
  IC50: 1.29 µM
[6]
  IC50: 4.55 µM
[7]
  CC-v2 (curve class classification of the dose response curve): -1.2
  Efficacy: -55.9
[7]; Zika virus, Vero
  AC50: 5.7e-06 M
  IC50: 5.7 µM
[7]; [10]
  AC50: 5.7e-06 M
In vitro [8]
  CC50: > 50 µM

## COc1ccc(C(O)C(C)OC2OC(CO)C(O)C(O)C2O)cc1 (centres unmarked) [NCGC00385130-01]
[1]
  CC-v2 (curve class of the dose response curve): 4
  Efficacy (difference between neutral response and maximum compound response): 0
  Max Resp (difference between neutral response and response at highest compound concentration): -28.221
In vitro [9]
  CC50: > 30 µM
[5]
  IC50: 0.01 µM
[6]
  IC50: 0.001 µM
[7]
  CC-v2 (curve class classification of the dose response curve): -3
  Efficacy: -87.993
[7]; Zika virus, Vero
  AC50: 2.02e-05 M
  IC50: 20.2 µM
[7]; [10]
  AC50: 2.02e-05 M
In vitro [8]
  CC50 at 48 h: > 50 µM

## CC1(C)CC2C(O)C3=C(CC(C)(O)C2C1)C(=O)OC3 (centres unmarked) [NCGC00385131-01]
[1]
  CC-v2 (curve class of the dose response curve): -1.2
  Efficacy (difference between neutral response and maximum compound response): -69.698
  Max Resp (difference between neutral response and response at highest compound concentration): -44.202
  AC50: 2.67e-09 M
[1]; [11]
  AC50: 2.67e-09 M
WNV (Kern515/WN02)
  WHV active Yes/No: No
YFV (YFV 17D)
  YFV active Yes/No: No
In vitro [9]
  CC50: > 30 µM
ZIKV
  ZIKV active Yes/No: No
[2]
  DENV active Yes/No: No
[5]
  IC50: 8.31 µM
[6]
  IC50: 0.02 µM
[7]
  Curve class: -3
  Efficacy: -83.269
[7]; Zika virus, Vero
  AC50: 2.31e-05 M
  IC50: 23.1 µM
[7]; Zika virus, Vero, read-out: Log AC50 (converted)
  AC50: 2.31e-05 M
[7]; Zika virus, Vero, read-out: Max response
  Emax: 3.01%
In vitro [8]
  CC50 at 48 h: > 50 µM

## CC(=O)OC[C@]12[C@H](OC(C)=O)C(=O)[C@@H]3[C@@H](O)[C@@]14O[C@@]3(C)COC(=O)c1cccnc1[C@@H](C)[C@H](C)C(=O)O[C@@H]([C@H](OC(C)=O)[C@@H]2OC(C)=O)[C@]4(C)O [NCGC00385298-01]
[1]
  CC-v2 (curve class of the dose response curve): -1.3
  Efficacy (difference between neutral response and maximum compound response): -66.581
  Max Resp (difference between neutral response and response at highest compound concentration): -100.048
  AC50: 3.53e-06 M
[1]; [11]
  AC50: 3.53e-06 M
Vero cells
  AC50: 9.81 µM
  Log AC50 (M): -5.0083 M
In vitro [9]
  CC50: > 30 µM
[5]
  IC50: 9.86 µM
[6]
  CC-v2 (curve class classification v2 of the dose response curve): -2.3
  Efficacy (difference between neutral response and maximum compound response): -117.521
  Max Resp (difference between neutral response and compound response for highest compound concentration): -98.025
  AC50: 9.81e-06 M
  IC50: 9.81 µM
[6]; [11]
  AC50: 9.81e-06 M
[7]
  CC-v2 (curve class classification of the dose response curve): -2.1
  Efficacy: -97.679
[7]; Zika virus, Vero
  AC50: 1.72e-05 M
  IC50: 17.2 µM
[7]; [10]
  AC50: 1.72e-05 M
In vitro [8]
  CC50: > 50 µM

## COc1cc2c(c(OC)c1CC=C(C)C)C[C@H](c1ccc(O)c(CC=C(C)C)c1O)CO2 [NCGC00385627-01]
[1]
  CC-v2 (curve class of the dose response curve): 4
  Efficacy (difference between neutral response and maximum compound response): -33.338
  Max Resp (difference between neutral response and response at highest compound concentration): -100.29
In vitro [9]
  CC50: > 30 µM
[5]
  IC50: 16.3 µM
[6]
  IC50: 11.5 µM
[7]
  Efficacy: -25.574
[7]; Zika virus, Vero
  AC50: 1.78e-05 M
  IC50: 17.8 µM
[7]; [10]
  AC50: 1.78e-05 M
In vitro [8]
  CC50 at 48 h: > 50 µM

## CN[C@H](CC(C)C)C(=O)N[C@H]1C(=O)N[C@@H](CC(N)=O)C(=O)N[C@H]2C(=O)N[C@H]3C(=O)N[C@H](C(=O)N[C@H](C(=O)O)c4cc(O)cc(O)c4-c4cc3ccc4O)[C@H](O[C@H]3C[C@](C)(N)[C@@H](O)[C@H](C)O3)c3ccc(c(Cl)c3)Oc3cc2cc(c3O[C@@H]2O[C@H](CO)[C@@H](O)[C@H](O)[C@H]2O[C@H]2C[C@](C)(NCc3ccc(-c4ccc(Cl)cc4)cc3)[C@@H](O)[C@H](C)O2)Oc2ccc(cc2Cl)[C@H]1O [NCGC00485478-01]
[1]
  CC-v2 (curve class of the dose response curve): 4
  Efficacy (difference between neutral response and maximum compound response): 0
  Max Resp (difference between neutral response and response at highest compound concentration): -93.894
In vitro [9]
  CC50: > 30 µM
[5]
  IC50: > 48 µM
[6]
  IC50: 12.3 µM
[7]
  Efficacy: -25.057
[7]; Zika virus, Vero
  AC50: 1.37e-05 M
  IC50: 13.7 µM
[7]; [10]
  AC50: 1.37e-05 M
In vitro [8]
  CC50: > 50 µM
